{
  "source": "patent US10865216B2",
  "about": "“Tricyclic Gyrase inhibitors” (MERCK SHARP & DOHME CORP., priority 2012, dated 2020)",
  "data": [
    {"tested_on": "S. aureus ATCC 13709", "test": "MIC, S. aureus ATCC 13709", "format": "cell-based", "conditions": "S. aureus; Alamar Blue read after overnight incubation at 35° C.", "units": {"MIC Sa": "µg/mL"}, "values": [
      {"smiles": "CNc1cc(F)cc2c1[nH]c1nc(Oc3cnc(N4CCOCC4)nc3)nc(N3CC[C@@H](N)C3)c12", "note": "[Compound 4.212]", "MIC Sa": "≤0.5"},
      {"smiles": "CNNc1cc(F)cc2c1[nH]c1nc(Oc3cnc(C)nc3)nc(N3CC4C(N)C4C3)c12", "note": "(stereo not shown) [Compound 2.1]", "MIC Sa": "≤0.5"},
      {"smiles": "CNc1cc(F)cc2c1[nH]c1nc(Oc3cnc(C4CC4)nc3)nc(C3CCC4(CC3)NC(=O)NC4=O)c12", "note": "(stereo not shown) [Compound 4.252]", "MIC Sa": ">16"},
      {"smiles": "CNc1ncc(Oc2nc(N3C[C@H](N)C4(CC4)C3)c3c(n2)[nH]c2c(NC)cc(F)cc23)cn1", "note": "[Compound 4.216]", "MIC Sa": "≤0.5"},
      {"smiles": "CNc1cc(F)cc2c1[nH]c1nc(Oc3cncc(C#N)c3)nc(N3CC4CC(N)C4C3)c12", "note": "(stereo not shown) [Compound 4.053]", "MIC Sa": "≤0.5"},
      {"smiles": "Cc1cc(F)cc2c1[nH]c1nc(Oc3cncnc3)nc(N3CC4C(N)C4C3)c12", "note": "(stereo not shown) [Compound 2.7]", "MIC Sa": 4}
    ]},
    {"tested_on": "S. aureus ATCC 13709", "test": "MIC, S. aureus ATCC 13709", "format": "cell-based", "conditions": "Staphylococcus aureus, ATCC13709, S. aureus; Alamar Blue read after overnight incubation at 35° C.; read-out: MIC Sa", "units": {"MIC": "µg/mL"}, "values": [
      {"smiles": "CNc1cccc2c1[nH]c1nc(Sc3cnc4cccnc4c3)nc(N3CCNCC3)c12", "note": "[Compound 1.46]", "MIC": 2},
      {"smiles": "CNc1cccc2c1[nH]c1nc(Sc3cnc4cccnc4c3)nc(N3CCC4(CCNCC4)C3)c12", "note": "[Compound 1.56]", "MIC": 4},
      {"smiles": "CNc1cc(F)cc2c1[nH]c1nc(Sc3cnc4ccc[n+]([O-])c4c3)nc(N3CC(N)C4(CC4)C3)c12", "note": "(stereo not shown) [Compound 1.63]", "MIC": "≤ 0.5"},
      {"smiles": "Cc1ncc(Oc2nc(N3CC4CC3C[C@H]4N)c3c(n2)[nH]c2c(N)cc(F)cc23)cn1", "note": "(stereo partly shown) [Compound 2.16]", "MIC": 8}
    ]},
    {"tested_on": "S. aureus ATCC 13709", "test": "MIC, S. aureus ATCC 13709", "format": "cell-based", "conditions": "Staphylococcus aureus, ATCC13709, Table 16; new R4 substituents; read-out: SA MIC", "units": {"MIC": "µg/mL"}, "values": [
      {"smiles": "CNc1cc(F)cc2c1[nH]c1nc(Oc3cnc(C)nc3)nc(N3CC[C@@H](CN)C3)c12", "MIC": "≤ 0.5"}
    ]},
    {"tested_on": "S. aureus ATCC 13709", "test": "MIC, S. aureus ATCC 13709", "format": "cell-based", "conditions": "Table 12; Z is C and connected to R4", "units": {"SA MIC": "µg/mL"}, "values": [
      {"smiles": "CNc1cc(F)c2c3c1[nH]c1nc(Oc4cnc(C)nc4)nc(c13)-c1ccc(Cl)cc1NC2", "SA MIC": "≤ 0.5"},
      {"smiles": "CNc1cc(F)c2c3c1[nH]c1nc(Oc4cnc(C)nc4)nc(c13)NC(=N)NC2", "SA MIC": 4}
    ]},
    {"tested_on": "S. aureus ATCC 13709", "test": "MIC, S. aureus ATCC 13709", "format": "cell-based", "conditions": "Table 17; comparative, new species of R2", "units": {"SA MIC": "µg/mL"}, "values": [
      {"smiles": "CNc1cc(F)cc2c1[nH]c1nc(Oc3cnc4c(C)cnn4c3)nc(N3C[C@H]4C[C@@H]3C[C@H]4N)c12", "note": "[drawing 1831]", "SA MIC": "≤ 0.016"},
      {"smiles": "CNc1cc(F)cc2c1[nH]c1nc(Oc3cnc4ccnn4c3)nc(N3C[C@H]4C[C@@H]3C[C@H]4N)c12", "SA MIC": "≤ 0.016"},
      {"smiles": "CNc1cc(F)cc2c1[nH]c1nc(Oc3cnc(C)nc3)nc(C3C[C@H]4CCN[C@H]4C3)c12", "note": "(stereo partly shown)", "SA MIC": "< 0.03"},
      {"smiles": "CNc1cc(F)cc2c1[nH]c1nc(Oc3cnc(C)nc3)nc(N3C[C@H]4C[C@@H]3C[C@H]4N)c12", "SA MIC": "≤ 0.016"}
    ]},
    {"tested_on": "S. aureus ATCC 13709", "test": "MIC, S. aureus ATCC 13709", "format": "cell-based", "conditions": "Table 18, Sa", "units": {"MIC Sa": "µg/mL"}, "values": [
      {"smiles": "CNc1cc(F)cc2c1[nH]c1nc(Oc3ccc(C)nc3)nc(N3CC4CC(C)NC4C3)c12", "note": "(stereo not shown) [Compound 10.79]", "MIC Sa": "≤ 0.5"},
      {"smiles": "CNc1cc(F)cc2c1[nH]c1nc(Oc3cnc([C@@H](C)O)nc3)nc(N3CC4(CC[C@H]4N)C3)c12", "note": "[Compound 10.59]", "MIC Sa": "≤ 0.5"},
      {"smiles": "CNc1cc(F)c(Cl)c2c1[nH]c1nc(Oc3cnc([C@@H](C)O)nc3)nc(N3CC4(CC[C@@H]4N)C3)c12", "note": "[Compound 10.88]", "MIC Sa": "≤ 0.5"},
      {"smiles": "CNc1cc(F)cc2c1[nH]c1nc(Oc3cnc(C(C)O)nc3)nc(N(C)C)c12", "note": "(stereo not shown) [Compound 10.101]", "MIC Sa": "≤ 0.5"}
    ]},
    {"tested_on": "P. aeruginosa ATCC 15692", "test": "MIC, P. aeruginosa ATCC 15692", "format": "cell-based", "conditions": "Table 17; comparative, new species of R2", "units": {"PA MIC": "µg/mL"}, "values": [
      {"smiles": "CNc1cc(F)cc2c1[nH]c1nc(Oc3cnc4c(C)cnn4c3)nc(N3C[C@H]4C[C@@H]3C[C@H]4N)c12", "note": "[drawing 1831]", "PA MIC": 0.5},
      {"smiles": "CNc1cc(F)cc2c1[nH]c1nc(Oc3cnc4ccnn4c3)nc(N3C[C@H]4C[C@@H]3C[C@H]4N)c12", "PA MIC": 0.5},
      {"smiles": "CNc1cc(F)cc2c1[nH]c1nc(Oc3cnc(C)nc3)nc(C3C[C@H]4CCN[C@H]4C3)c12", "note": "(stereo partly shown)", "PA MIC": 2},
      {"smiles": "CNc1cc(F)cc2c1[nH]c1nc(Oc3cnc(C)nc3)nc(N3C[C@H]4C[C@@H]3C[C@H]4N)c12", "PA MIC": 1}
    ]},
    {"tested_on": "E. coli ATCC 25922", "test": "MIC, E. coli ATCC 25922", "format": "cell-based", "conditions": "E. coli; Alamar Blue read after overnight incubation at 35° C.", "units": {"MIC Ec": "µg/mL"}, "values": [
      {"smiles": "CNc1cc(F)cc2c1[nH]c1nc(Oc3cnc(N4CCOCC4)nc3)nc(N3CC[C@@H](N)C3)c12", "note": "[Compound 4.212]", "MIC Ec": "≤0.5"},
      {"smiles": "CNNc1cc(F)cc2c1[nH]c1nc(Oc3cnc(C)nc3)nc(N3CC4C(N)C4C3)c12", "note": "(stereo not shown) [Compound 2.1]", "MIC Ec": ">16"},
      {"smiles": "CNc1cc(F)cc2c1[nH]c1nc(Oc3cnc(C4CC4)nc3)nc(C3CCC4(CC3)NC(=O)NC4=O)c12", "note": "(stereo not shown) [Compound 4.252]", "MIC Ec": ">16"},
      {"smiles": "CNc1ncc(Oc2nc(N3C[C@H](N)C4(CC4)C3)c3c(n2)[nH]c2c(NC)cc(F)cc23)cn1", "note": "[Compound 4.216]", "MIC Ec": "≤0.5"},
      {"smiles": "CNc1cc(F)cc2c1[nH]c1nc(Oc3cncc(C#N)c3)nc(N3CC4CC(N)C4C3)c12", "note": "(stereo not shown) [Compound 4.053]", "MIC Ec": "≤0.5"},
      {"smiles": "Cc1cc(F)cc2c1[nH]c1nc(Oc3cncnc3)nc(N3CC4C(N)C4C3)c12", "note": "(stereo not shown) [Compound 2.7]", "MIC Ec": ">16"}
    ]},
    {"tested_on": "E. coli ATCC 25922", "test": "MIC, E. coli ATCC 25922", "format": "cell-based", "conditions": "Escherichia coli, ATCC25922, E. coli; Alamar Blue read after overnight incubation at 35° C.; read-out: MIC Ec", "units": {"MIC": "µg/mL"}, "values": [
      {"smiles": "CNc1cccc2c1[nH]c1nc(Sc3cnc4cccnc4c3)nc(N3CCNCC3)c12", "note": "[Compound 1.46]", "MIC": 4},
      {"smiles": "CNc1cccc2c1[nH]c1nc(Sc3cnc4cccnc4c3)nc(N3CCC4(CCNCC4)C3)c12", "note": "[Compound 1.56]", "MIC": 32},
      {"smiles": "CNc1cc(F)cc2c1[nH]c1nc(Sc3cnc4ccc[n+]([O-])c4c3)nc(N3CC(N)C4(CC4)C3)c12", "note": "(stereo not shown) [Compound 1.63]", "MIC": "≤ 0.5"},
      {"smiles": "Cc1ncc(Oc2nc(N3CC4CC3C[C@H]4N)c3c(n2)[nH]c2c(N)cc(F)cc23)cn1", "note": "(stereo partly shown) [Compound 2.16]", "MIC": 16}
    ]},
    {"tested_on": "E. coli ATCC 25922", "test": "MIC, E. coli ATCC 25922", "format": "cell-based", "conditions": "Escherichia coli, ATCC25922, Table 16; new R4 substituents; EC8 not defined; read-out: EC8 MIC", "units": {"MIC": "µg/mL"}, "values": [
      {"smiles": "CNc1cc(F)cc2c1[nH]c1nc(Oc3cnc(C)nc3)nc(N3CC[C@@H](CN)C3)c12", "MIC": "≤ 0.5"}
    ]},
    {"tested_on": "E. coli ATCC 25922", "test": "MIC, E. coli ATCC 25922", "format": "cell-based", "conditions": "Table 12; Z is C and connected to R4; EC8 not defined", "units": {"EC8 MIC": "µg/mL"}, "values": [
      {"smiles": "CNc1cc(F)c2c3c1[nH]c1nc(Oc4cnc(C)nc4)nc(c13)-c1ccc(Cl)cc1NC2", "EC8 MIC": 4},
      {"smiles": "CNc1cc(F)c2c3c1[nH]c1nc(Oc4cnc(C)nc4)nc(c13)NC(=N)NC2", "EC8 MIC": 8}
    ]},
    {"tested_on": "E. coli ATCC 25922", "test": "MIC, E. coli ATCC 25922", "format": "cell-based", "conditions": "Table 18, Ec", "units": {"MIC Ec": "µg/mL"}, "values": [
      {"smiles": "CNc1cc(F)cc2c1[nH]c1nc(Oc3ccc(C)nc3)nc(N3CC4CC(C)NC4C3)c12", "note": "(stereo not shown) [Compound 10.79]", "MIC Ec": "≤ 0.5"},
      {"smiles": "CNc1cc(F)cc2c1[nH]c1nc(Oc3cnc([C@@H](C)O)nc3)nc(N3CC4(CC[C@H]4N)C3)c12", "note": "[Compound 10.59]", "MIC Ec": "≤ 0.5"},
      {"smiles": "CNc1cc(F)c(Cl)c2c1[nH]c1nc(Oc3cnc([C@@H](C)O)nc3)nc(N3CC4(CC[C@@H]4N)C3)c12", "note": "[Compound 10.88]", "MIC Ec": "≤ 0.5"},
      {"smiles": "CNc1cc(F)cc2c1[nH]c1nc(Oc3cnc(C(C)O)nc3)nc(N(C)C)c12", "note": "(stereo not shown) [Compound 10.101]", "MIC Ec": "≤ 0.5"}
    ]},
    {"tested_on": "S. pneumoniae ATCC 51916", "test": "MIC, S. pneumoniae ATCC 51916", "format": "cell-based", "conditions": "Table 17; comparative; Spn52 not defined", "units": {"Spn52 MIC": "µg/mL"}, "values": [
      {"smiles": "CNc1cc(F)cc2c1[nH]c1nc(Oc3cnc4c(C)cnn4c3)nc(N3C[C@H]4C[C@@H]3C[C@H]4N)c12", "note": "[drawing 1831]", "Spn52 MIC": "≤ 0.001"},
      {"smiles": "CNc1cc(F)cc2c1[nH]c1nc(Oc3cnc4ccnn4c3)nc(N3C[C@H]4C[C@@H]3C[C@H]4N)c12", "Spn52 MIC": "≤ 0.001"},
      {"smiles": "CNc1cc(F)cc2c1[nH]c1nc(Oc3cnc(C)nc3)nc(C3C[C@H]4CCN[C@H]4C3)c12", "note": "(stereo partly shown)", "Spn52 MIC": "< 0.03"},
      {"smiles": "CNc1cc(F)cc2c1[nH]c1nc(Oc3cnc(C)nc3)nc(N3C[C@H]4C[C@@H]3C[C@H]4N)c12", "Spn52 MIC": "≤ 0.016"}
    ]}
  ]
}
